Measurements taken from paper PMC9658812, “New Pyrimidine-5-Carbonitriles as COX-2 Inhibitors: Design, Synthesis, Anticancer Screening, Molecular Docking, and In Silico ADME Profile Studies” (Molecules, 2022).
“And” between values parts separate entries of the source, which are not always exact repeats. Equal values may be shown once. Values belong to the molecule of their own block, whether it stands above or below them.

How the values were obtained:
[1] = target: T1, human COX-2 (Homo sapiens, UniProt P35354); test: COX-2 inhibition assay (fluorometric inhibitor screening kit); type: biochemical; settings: for inhibition at 10 µM: 10^−5 M; for inhibition at 10 µM / inhibition at 1 µM / inhibition at 0.1 µM / inhibition at 0.01 µM / inhibition at 0.001 µM: mean of three experiments ± SD, read-out: COX-2 Inhibition (%); for inhibition at 1 µM: 10^−6 M; for inhibition at 0.1 µM: 10^−7 M; for inhibition at 0.01 µM: 10^−8 M; for inhibition at 0.001 µM: 10^−9 M; for IC50: human COX-2 assay kit, three experiments
T1 construct: purchased Biovision, Zurich, Switzerland
T1 sequence (P35354 18-604): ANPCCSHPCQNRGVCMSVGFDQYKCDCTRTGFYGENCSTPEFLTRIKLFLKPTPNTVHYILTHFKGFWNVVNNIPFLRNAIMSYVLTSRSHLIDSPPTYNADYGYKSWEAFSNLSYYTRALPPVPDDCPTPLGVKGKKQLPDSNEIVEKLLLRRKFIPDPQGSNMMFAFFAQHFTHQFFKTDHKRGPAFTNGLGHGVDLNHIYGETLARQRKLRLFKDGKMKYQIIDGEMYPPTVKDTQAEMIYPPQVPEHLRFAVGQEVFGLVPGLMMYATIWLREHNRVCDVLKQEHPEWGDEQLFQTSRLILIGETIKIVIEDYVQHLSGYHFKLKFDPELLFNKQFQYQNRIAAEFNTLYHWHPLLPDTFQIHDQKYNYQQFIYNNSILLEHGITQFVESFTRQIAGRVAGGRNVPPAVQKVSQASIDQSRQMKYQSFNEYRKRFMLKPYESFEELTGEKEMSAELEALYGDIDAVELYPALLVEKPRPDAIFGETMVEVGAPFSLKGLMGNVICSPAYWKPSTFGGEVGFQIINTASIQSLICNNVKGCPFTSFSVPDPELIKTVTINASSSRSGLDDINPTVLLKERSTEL
Text: Fluorometric inhibitor screening kits (Biovision, Zurich, Switzerland) were utilized for the COX-2 enzyme inhibition test, as described before.

[2] = tested on: gastric MGC-803 cancer cells; design: method as in PMID 25610955, PMID 25180925; settings: cited from earlier work
[3] = tested on: MDA-MB-231 breast cancer cell line; design: method as in PMID 28486908; settings: cited from earlier work
[4] = tested on: MCF-7; settings: breast cancer cell line; cited from earlier work
[5] = tested on: MCF7 cells (breast carcinoma); test: MTT cytotoxicity assay, MCF7; settings: for IC50: Homo sapiens, MCF7, 24 h, read-out: Cytotoxicity IC50 MCF7; for fold more cytotoxic than doxorubicin, MCF7: versus doxorubicin
Procedure: (§1) Breast carcinoma (MCF-7), renal cell carcinoma (A498), lung cancer (A549), and liver carcinoma (HepG2) cell lines, in addition to non-tumorigenic WI-38 cell lines, were collected from the American Type Culture Collection. The cells were grown in DMEM (Invitrogen/Life Technologies) containing 1% penicillin-streptomycin, 10 µg/mL of insulin (Sigma), and 10% FBS (Hyclone).
(§2) To check the possible cellular toxicity, synthesized compounds were subjected to the MTT [3-(4,5-dimethylthiazol-2-yl)-2,5-diphenyltetrazolium bromide] assay against the MCF7, A549, A498, and HepG2 cell lines. […] Later, 2.0–3.0 mL of Trypsin EDTA solution was added into the flask containing the cell layers for 5–15 min to disperse the cell layer, which was observed through an inverted microscope. By gently pipetting, aspirated cells were added into a 6.0–8.0 mL growth medium. […] An amount of 20 μL of a 5-mg/mL MTT solution was applied after a 24-h drug-treatment period, and it was incubated for 4 h. To dissolve the produced purple formazan, each well received 100 μL of dimethyl sulfoxide (DMSO).

[6] = tested on: A498 cells (renal carcinoma); test: MTT cytotoxicity assay, A498; settings: for IC50: Homo sapiens, A498, 24 h, read-out: Cytotoxicity IC50 A498; for fold more cytotoxic than doxorubicin, A498: versus doxorubicin
Procedure: as §1, §2

[7] = tested on: WI-38 cells (normal cell derived from lung tissue); test: Cytotoxicity on non-tumorigenic WI-38 cell line; settings: Homo sapiens, WI-38, read-out: WI-38 IC50
Procedure: as §1, §2

[8] = tested on: HepG2 cells (liver carcinoma); test: MTT cytotoxicity assay, HepG2; settings: for IC50: Homo sapiens, HepG2, 24 h, read-out: Cytotoxicity IC50 HepG2; for fold more cytotoxic than doxorubicin, HepG2: versus doxorubicin
Procedure: as §1, §2

[9] = tested on: A549 cells (non-small-cell lung cancer); test: MTT cytotoxicity assay, A549; settings: for IC50: Homo sapiens, A549, 24 h, read-out: Cytotoxicity IC50 A549; for fold more cytotoxic than doxorubicin, A549: versus doxorubicin
Procedure: as §1, §2

[10] = tested on: MCF-7 cells; test: Cell cycle analysis by flow cytometry (PI); type: cell-based
Procedure: These findings imply that compound 5d’s cytotoxicity was proven by the arrest of cell growth at the G2/M phase.
Compound 5d was applied to MCF-7 cell culture for 48 h at its IC50 concentration. Briefly, cells were rinsed twice with phosphate buffer saline (PBS) (ice-cold) and then centrifuged and/or fixed in 70% (v/v) ethanol (ice-cold). The solution was rinsed with PBS, suspended with RNase (0.1 mg/mL), stained with propidium iodide (PI) ([…]), and analyzed via flow cytometry utilizing the FACS Calibur (Becton Dickinson, Franklin Lakes, NJ, USA). Through Cell-Quest software (Becton Dickinson), cell cycle distributions were calculated.

[11] = tested on: MCF-7 cells; test: Apoptosis determination by Annexin-V assay; type: cell-based; settings: MCF-7, IC50 concentration
Procedure: A biparametric cytofluorimetric analysis was performed using the Annexin-V assay to verify the ability of compound 5d at its IC50 concentration to trigger apoptosis. When compared to the control, compound 5d increased the proportion of early and late apoptotic cells in MCF-7 cells by nearly 13- and 60-fold, respectively, when compared to control cells, which had 0.53% and 0.25% early and late apoptotic cells, respectively.
The MCF-7 cell culture was treated with an IC50 of compound 5d for 48 h. The cancer cells were then suspended in PBS, centrifuged, and preserved in 99% ethanol (ice-cold). Cells suspended in ethanol were centrifuged for 5 min before being suspended in PBS and re-centrifuged once again. The supernatant was decanted, and the cells were stained at 37 °C with annexin V fluorescein isothiocyanate and PI using the apoptosis detection kit (BD Biosciences, San Jose, CA, USA) following the manufacturer’s instructions. A flow cytometer was used to examine the binding of annexin V-FITC and PI. The FACS Calibur was used to assess the cells, and Phoenix Flow Systems and Verity Software House were employed to calculate their distributions.

[12] = tested on: COX-2; settings: cited from earlier work
[13] = MCF-7, compound at its IC50 concentration, 48 h

Compound: C#CCSc1nc(NC(N)=S)c(C#N)c(-c2cc(OC)c(OC)c(OC)c2)n1 [III]
IC50 [2]: 4010 nM

Compound: COc1ccc(-c2nc(N3N=C(c4ccc(F)cc4)CCC3=O)n(C)c(=O)c2C#N)cc1 [Compound V]
IC50 [3]: 3430 nM
IC50 [4]: 2560 nM

Compound: COc1ccc(-c2nc(NS(=O)(=O)c3ccc(C(F)(F)F)cc3)nc(OC)c2C#N)cc1 [Compound 5d, N-(5-Cyano-4-methoxy-6-(4-methoxyphenyl)pyrimidin-2-yl)-4-(trifluoromethyl)benzene sulfonamide]
IC50 [5]: 1 ± 0.03 nM
fold more cytotoxic than doxorubicin, MCF7 [5]: about 9 fold
IC50 [6]: 2 ± 0.08 nM
fold more cytotoxic than doxorubicin, A498 [6]: ~3.5 fold
IC50 [7]: 91290 ± 470 nM
accumulation of cell population in G2/M phase compared to control ([10]; MCF-7, IC50 concentration): 5 times
accumulation of cell population in sub-G1 phase compared to control ([10]; MCF-7, IC50 concentration): 16 times
%G0-G1 [10, 13]: 24.39 ± 3.01 %
%G2/M [10, 13]: 58.37 ± 0.52 %
%Pre-G1 [10, 13]: 26.16 ± 1.53%
%S [10, 13]: 16.23% and 16.23 ± 1.23 %
inhibition at 10 µM [1]: 41.8 ± 0.91%
inhibition at 1 µM [1]: 35.9 ± 0.72%
inhibition at 0.1 µM [1]: 23.1 ± 0.25%
inhibition at 0.01 µM [1]: 76.1 ± 1.05%
inhibition at 0.001 µM [1]: 60.7 ± 1.09%
IC50 [1]: 160 ± 10 nM
increase of proportion of early apoptotic cells versus control [11]: ~13 fold
increase of proportion of late apoptotic cells versus control [11]: ~60 fold
proportion of necrosis versus control [11]: three-fold
Apoptosis Early ([11]; 48 h): 6.78 ± 0.25%
Apoptosis Late ([11]; 48 h): 14.96 ± 1.10%
Necrosis ([11]; 48 h): 2.83 ± 0.47%
IC50 [8]: 9 ± 0.34 nM
fold more cytotoxic than doxorubicin, HepG2 [8]: ~2.8 fold
melting point: 291 to 293 °C
IC50 [9]: 1 ± 0.05 nM
fold more cytotoxic than doxorubicin, A549 [9]: ~13 fold

Compound: CS(=O)(=O)c1ccc(C2=C(c3ccccc3)C(=O)OC2)cc1 [rofecoxib]
IC50 [12]: 292 nM

Further lines, with some results ahead:

inhibition at 10 µM [1]: 71.2 ± 1.13%
inhibition at 1 µM [1]: 62.5 ± 0.95%
inhibition at 0.1 µM [1]: 41.1 ± 0.55%
inhibition at 0.01 µM [1]: 32 ± 0.61%
inhibition at 0.001 µM [1]: 22.3 ± 0.45%
IC50 [1]: 230 ± 10 nM
Compound: COc1ccc(-c2nc(NCc3nc4ccccc4[nH]3)nc(OC)c2C#N)cc1 [Compound 3a, 2-((1H-Benzo[d]imidazol-2-yl)methylamino)-4-methoxy-6-(4-methoxyphenyl)pyrimidine-5-carbonitrile]

inhibition at 10 µM [1]: 40.2 ± 0.58%
inhibition at 1 µM [1]: 36.2 ± 0.44%
inhibition at 0.1 µM [1]: 24.7 ± 0.31%
inhibition at 0.01 µM [1]: 75.2 ± 1.11%
inhibition at 0.001 µM [1]: 59.5 ± 1.04%
IC50 [1]: 180 ± 10 nM
fold more potent than Nimesulide (COX-2 IC50) ([1]; versus Nimesulide): ~9.3 fold
melting point: 283 to 285 °C
Compound: COc1ccc(-c2nc(NS(=O)(=O)c3ccc(C)cc3)nc(OC)c2C#N)cc1 [Compound 5b, N-(5-Cyano-4-methoxy-6-(4-methoxyphenyl)pyrimidin-2-yl)-4-methylbenzene-sulfonamide]
IC50 [5]: 2 ± 0.05 nM
fold more cytotoxic than doxorubicin, MCF7 [5]: 4.5 fold
IC50 [6]: 1 ± 0.05 nM
fold more cytotoxic than doxorubicin, A498 [6]: 7 fold
IC50 [7]: 89600 ± 2750 nM
IC50 [8]: 12 ± 0.38 nM
fold more cytotoxic than doxorubicin, HepG2 [8]: 2.1 fold
IC50 [9]: 3 ± 0.07 nM
fold more cytotoxic than doxorubicin, A549 [9]: 4.3 fold

inhibition at 10 µM [1]: 38.3 ± 0.63%
inhibition at 1 µM [1]: 31.6 ± 0.54%
inhibition at 0.1 µM [1]: 21.5 ± 0.49%
inhibition at 0.01 µM [1]: 70.3 ± 1.11%
inhibition at 0.001 µM [1]: 60.4 ± 0.98%
IC50 [1]: 340 ± 10 nM
melting point: > 300 °C
Compound: COc1ccc(-c2nc(NCc3cc4ccccc4s3)nc(OC)c2C#N)cc1 [Compound 3d, 2-(Benzo[b]thiophen-2-ylmethylamino)-4-methoxy-6-(4-methoxyphenyl)pyrimidine-5-carbonitrile]

inhibition at 10 µM [1]: 40.1 ± 0.57%
inhibition at 1 µM [1]: 30.2 ± 0.49%
inhibition at 0.1 µM [1]: 23.6 ± 0.51%
inhibition at 0.01 µM [1]: 72.2 ± 1.31%
inhibition at 0.001 µM [1]: 61.3 ± 0.84%
IC50 [1]: 260 ± 10 nM
melting point: 241 to 243 °C
Compound: COc1ccc(-c2nc(NS(=O)(=O)c3ccccc3)nc(OC)c2C#N)cc1 [Compound 5a, N-(5-Cyano-4-methoxy-6-(4-methoxyphenyl)pyrimidin-2-yl)benzenesulfonamide]
